We go through four compounds from paper PMC11176637 (iScience, 2024).

For this assay, the system named is VSVΔG-SW (S glycoprotein of the SARS-CoV-2 Wuhan variant). In words: microbe, parasite or virus in culture. Format: cell-based. The note with it: for IC50 against VSVΔG-SW: 0.3125–40 μM.

As to `Cc1cccc(NC(=O)CS(=O)(=O)c2nc(-c3ccccc3)cn2-c2ccc(Cl)cc2)c1C` [PCM-0163855, 2-((1-(4-chlorophenyl)-4-phenyl-1H-imidazol-2-yl)sulfonyl)-N-(2,3-dimethylphenyl)acetamide], for the setting “Severe acute respiratory syndrome coronavirus 2, read-out: IC50 against VSVΔG-SW”, the half-inhibitory concentration (IC50) – broadly, the point on the concentration scale where inhibition reaches its midpoint – was determined as 600 nM. On to `Nc1nc(Nc2ccccc2)sc1C(=O)c1ccccc1Cl` [PCM-0179622, (4-amino-2-anilino-1,3-thiazol-5-yl)(o-chlorophenyl)methanone], for which the “IC50 against VSVΔG-SW” value is “relatively high activity”. As to `CNC(=O)C(C#N)(Cc1cc(Cl)cc2c1OCOC2)Cc1cc(Cl)cc2c1OCOC2` [PCM-0068389, N-methyl3-(6-chloro-2,4-dihydro-1,3-benzodioxin-8-yl)-2-[(6-chloro-2,4-dihydro-1,3-benzodioxin-8-yl)methyl]-2-cyanopropionamide], the “IC50 against VSVΔG-SW” value was “lost all activity”. Turning to `COc1ccc2cc3c(N)nn(C(=O)Cc4c[nH]c5ccccc45)c3nc2c1` [PCM-0166392, 1-{6-amino-12-methoxy-2,4,5-triazatricyclo[7.4.0.0³,⁷]trideca-1,3(7),5,8,10,12-hexaen-4-yl}-2-(3-indolyl)-1-ethanone], the “IC50 against VSVΔG-SW” value is recorded as “relatively high activity”.
